Source: patent US12410160B2 (Gilead Sciences, Inc., priority 2021, dated 2025)

What was measured:
human KHK-A = human KHK-A (Homo sapiens (Human), UniProt P50053); experiment: KHK Biochemical Assay (IC50), ADP-Glo, KHK-A; conditions: average of at least two separate assays
Method: (§1) The His-tagged fusion protein was expressed using BL21 (DE3) with IPTG induction and purified using Ni-NTA column followed by dialysis into final buffer containing 25 mM Tris-HCl pH 8.0, 250 mM NaCl.
(§2) KHK Biochemical Assay (IC50)
(§3) Compounds were tested for KHK enzyme inhibition in a high-throughput 384-well assay format using the ADP-Glo assay (Promega) in buffer consisting of 50 mM Hepes (pH 7.4), 140 mM KCl, 5 mM MgCl2 and 0.01% Triton-X. 0.2 nM. […] Compounds were serially diluted (1:3) in DMSO.
(§4) The compounds were pre-incubated with 5 μL of 2× final enzyme concentration for 30 minutes before adding 5 μL of 2× final concentration of ATP and fructose. The plates were incubated at room temperature for 4 hours before adding ADP-Glo reagent to quench the enzyme reaction, followed by incubation at room temperature for 1 hour. The ADP-Glo detection reagent was then added to the plates and luminescence was measured on the Envision plate reader after 1 hour.

human KHK-C = human KHK-C (Homo sapiens (Human), UniProt P50053); experiment: KHK Biochemical Assay (IC50), ADP-Glo, KHK-C; conditions: average of at least two separate assays
Method: as §1, §2, §3, §4

Sequence of human KHK-A (P50053 other isoform, or with tags, fused parts or gaps): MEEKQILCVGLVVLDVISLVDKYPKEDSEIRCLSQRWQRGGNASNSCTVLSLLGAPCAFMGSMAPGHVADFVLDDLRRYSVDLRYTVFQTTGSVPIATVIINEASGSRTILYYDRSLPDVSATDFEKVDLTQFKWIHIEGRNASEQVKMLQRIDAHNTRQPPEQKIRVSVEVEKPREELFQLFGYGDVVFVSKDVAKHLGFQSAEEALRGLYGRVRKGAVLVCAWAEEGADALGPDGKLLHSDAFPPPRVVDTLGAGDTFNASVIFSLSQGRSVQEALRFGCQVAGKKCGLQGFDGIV
Sequence of human KHK-C (P50053 whole entry): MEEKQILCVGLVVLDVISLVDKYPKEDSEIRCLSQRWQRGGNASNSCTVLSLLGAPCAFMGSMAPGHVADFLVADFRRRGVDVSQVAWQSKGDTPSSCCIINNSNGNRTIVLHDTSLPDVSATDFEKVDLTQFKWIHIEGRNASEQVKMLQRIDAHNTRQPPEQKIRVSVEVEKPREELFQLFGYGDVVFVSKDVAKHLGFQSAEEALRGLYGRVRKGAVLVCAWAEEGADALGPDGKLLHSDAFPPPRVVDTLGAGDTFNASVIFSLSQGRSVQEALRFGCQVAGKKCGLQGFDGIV

| SMILES | IC50 (human KHK-A) | IC50 (human KHK-C) | IC50 (human KHK-A; ADP-Glo) | IC50 (human KHK-C; ADP-Glo) |
| --- | --- | --- | --- | --- |
| C[C@H]1[C@H](O)CN1c1nc(-c2ccc3c(c2)C(F)(F)C[C@@H]3NS(C)(=O)=O)c2c(n1)C(F)(F)CC2 (single isomer, unassigned) [Example 634] | 10.8 nM | 0.9 nM | – | – |
| C[C@H]1[C@H](F)CN1c1nc(-c2ccc3c(c2)S(=O)(=O)C[C@@H]3NS(C)(=O)=O)c2c(n1)C(F)(F)CC2 (single isomer, unassigned) [Example 679] | 2.3 nM | 0.1 nM | – | – |
| NC1(c2ccc(-c3nc(N4CC[C@H]4C(F)F)nc4c3CCC4(F)F)cc2)COC1 (single isomer, unassigned) [Example 688] | 96.5 nM | 59.6 nM | – | – |
| NC1(c2ccc(-c3nc(N4CC[C@@H]4C(F)F)nc4c3CCC4(F)F)cc2)CS(=O)(=O)C1 (single isomer, unassigned) [Example 800] | – | – | 7.8 nM | 1.3 nM |
| NC1(c2ccc(-c3nc(N4CC[C@H]4C(F)F)nc4c3CCC4(F)F)cc2)CS(=O)(=O)C1 (single isomer, unassigned) [Example 801] | – | – | > 100 nM | 52.2 nM |
| C[C@H]1[C@H](O)CN1c1nc(-c2cnc3c(c2)OC[C@H]3NS(C)(=O)=O)c2c(n1)C(F)(F)CC2 (single isomer, unassigned) [Example 822] | – | – | > 100 nM | 24.2 nM |
| C[C@H]1[C@H](O)CN1c1nc(-c2ccc3c(c2)OC[C@]32NC(=O)N(C)C2=O)c2c(n1)C(F)(F)CC2 (single isomer, unassigned) [Example 827] | – | – | > 100 nM | 11.8 nM |
| COC(=O)N[C@@H]1COc2cc(-c3nc(N4C[C@@H](O)[C@@H]4C)nc4c3CCC4(F)F)cc(OC)c21 (single isomer, unassigned) [Example 833] | – | – | 99.8 nM | 4 nM |
| COC(=O)N[C@H]1COc2cc(-c3nc(N4C[C@@H](O)[C@@H]4C)nc4c3CCC4(F)F)cc(OC)c21 (single isomer, unassigned) [Example 834] | – | – | 56.8 nM | 17.8 nM |
| COC(=O)CCc1cccc(-c2nc(N3CC[C@@H]3C)nc3c2CCC3)c1 [Example 1, methyl (S)-3-(3-(2-(2-methylazetidin-1-yl)-6,7-dihydro-5H cyclopenta[d]pyrimidin-4-yl)phenyl)propanoate] | – | – | 952 nM | 689 nM |
| COC(=O)CCc1ccccc1-c1nc(N2CC[C@@H]2C)nc2c1CCC2 [Example 2, methyl (S)-3-(2-(2-(2-methylazetidin-1-yl)-6,7-dihydro-5H-cyclopenta[d]pyrimidin-4-yl)phenyl)propanoate] | – | – | 31000 nM | 30800 nM |
| COC(=O)Cc1cccc(-c2nc(N3CC[C@@H]3C)nc3c2CCC3)c1 [Example 3, methyl (S)-2-(3-(2-(2-methylazetidin-1-yl)-6,7-dihydro-5H-cyclopenta[d]pyrimidin-4-yl)phenyl)acetate] | – | – | 121 nM | 122 nM |
| C[C@H]1CCN1c1nc2c(c(-c3ccccc3CCC(=O)O)n1)CCC2 [Example 5, (S)-3-(2-(2-(2-methylazetidin-1-yl)-6,7-dihydro-5H-cyclopenta[d]pyrimidin-4-yl)phenyl)propanoic acid] | – | – | 5920 nM | 7900 nM |
| C[C@H]1CCN1c1nc2c(c(-c3cccc(CC(=O)O)c3)n1)CCC2 [Example 6, (S)-2-(3-(2-(2-methylazetidin-1-yl)-6,7-dihydro-5H-cyclopenta[d]pyrimidin-4-yl)phenyl)acetic acid] | – | – | 285 nM | 243 nM |
| C[C@H]1CCN1c1nc2c(c(-c3cccc(C#N)c3)n1)CCC2 [Example 7, (S)-3-(2-(2-methylazetidin-1-yl)-6,7-dihydro-5H-cyclopenta[d]pyrimidin-4-yl)benzonitrile] | – | – | 439 nM | 373 nM |
| C[C@H]1CCN1c1nc2c(c(-c3ccccc3)n1)CCOC2 [Example 10, (S)-2-(2-methylazetidin-1-yl)-4-phenyl-5,8-dihydro-6H-pyrano[3,4-d]pyrimidine] | – | – | 1150 nM | 1140 nM |
| C[C@H]1CCN1c1nc(-c2ccccc2)c2c(cnn2C)n1 [Example 11, (S)-1-methyl-5-(2-methylazetidin-1-yl)-7-phenyl-1H-pyrazolo[4,3-d]pyrimidine] | – | – | 453 nM | 408 nM |
| C[C@H]1CCN1c1nc(-c2ccccc2)c2occc2n1 [Example 12, (S)-2-(2-methylazetidin-1-yl)-4-phenylfuro[3,2-d]pyrimidine] | – | – | 2620 nM | 2600 nM |

| SMILES | IC50 (human KHK-A) | IC50 (human KHK-C) | IC50 (human KHK-A; ADP-Glo) | IC50 (human KHK-C; ADP-Glo) |
| --- | --- | --- | --- | --- |
| C[C@H]1CCN1c1nc2c(c(-c3ccn(CCC(=O)O)n3)n1)CCC2 [Example 24, (S)-3-(3-(2-(2-methylazetidin-1-yl)-6,7-dihydro-5H-cyclopenta[d]pyrimidin-4-yl)-1H-pyrazol-1-yl)propanoic acid] | – | – | 615 nM | 420 nM |
| C[C@H]1CCN1c1nc2c(c(-c3cnn(CCC(=O)O)c3)n1)CCC2 [Example 25, (S)-3-(4-(2-(2-methylazetidin-1-yl)-6,7-dihydro-5H-cyclopenta[d]pyrimidin-4-yl)-1H-pyrazol-1-yl)propanoic acid] | – | – | 142 nM | 104 nM |
| C[C@H]1CCN1c1nc(-c2ccccc2)c2ncsc2n1 [Example 26, (S)-5-(2-methylazetidin-1-yl)-7-phenylthiazolo[5,4-d]pyrimidine] | – | – | 1860 nM | 1540 nM |
| C[C@H]1CCN1c1nc2c(c(-c3ccccc3)n1)CC(C1CC1)C2 (stereo partly drawn) [Example 30, 6-cyclopropyl-2-((S)-2-methylazetidin-1-yl)-4-phenyl-6,7-dihydro-5H-cyclopenta[d]pyrimidine] | – | – | > 50000 nM | > 50000 nM |
| C[C@H]1CCN1c1nc(-c2ccccc2)c2c(n1)C1CCC2C1 (stereo partly drawn) [Example 31, 2-((S)-2-methylazetidin-1-yl)-4-phenyl-5,6,7,8-tetrahydro-5,8-methanoquinazoline] | – | – | 935 nM | 1480 nM |
| C[C@H]1[C@H](O)CN1c1nc2c(c(-c3cccc(C(N)=O)c3)n1)CCC2 [Example 32] | – | – | 86.8 nM | 125 nM |
| C[C@H]1CCN1c1nc(-c2cccc(C(N)=O)c2)c2c(n1)C1CCC2C1 (stereo partly drawn) [Example 33, 3-(2-((S)-2-methylazetidin-1-yl)-5,6,7,8-tetrahydro-5,8-methanoquinazolin-4-yl)benzamide] | – | – | 272 nM | 240 nM |
| C[C@H]1CCN1c1nc(-c2cn[nH]c2)c2c(cnn2C)n1 [Example 35, (S)-1-methyl-5-(2-methylazetidin-1-yl)-7-(1H-pyrazol-4-yl)-1H-pyrazolo[4,3-d]pyrimidine] | – | – | 189 nM | 220 nM |
| C[C@H]1CCN1c1nc(-c2cccc(S(N)(=O)=O)c2)c2c(cnn2C)n1 [Example 37, (S)-3-(1-methyl-5-(2-methylazetidin-1-yl)-1H-pyrazolo[4,3-d]pyrimidin-7-yl)benzenesulfonamide] | – | – | 224 nM | 213 nM |
| CC(=O)Nc1cccc(-c2nc(N3CC[C@@H]3C)nc3c2CCC3)c1 [Example 40, (S)—N-(3-(2-(2-methylazetidin-1-yl)-6,7-dihydro-5H-cyclopenta[d]pyrimidin-4-yl)phenyl)acetamide] | – | – | 54.3 nM | 57 nM |
| C[C@H]1CCN1c1nc2c(c(-c3cccc(NS(C)(=O)=O)c3)n1)CCC2 [Example 42, (S)—N-(3-(2-(2-methylazetidin-1-yl)-6,7-dihydro-5H-cyclopenta[d]pyrimidin-4-yl)phenyl)methanesulfonamide] | – | – | 31.8 nM | 22.7 nM |
| C[C@H]1CCN1c1nc2c(c(-c3cccs3)n1)CCC2 [Example 45, (S)-2-(2-methylazetidin-1-yl)-4-(thiophen-2-yl)-6,7-dihydro-5H-cyclopenta[d]pyrimidine] | – | – | 118 nM | 108 nM |
| C[C@H]1CCN1c1nc2c(c(-c3cccc(C4CC4C(=O)O)c3)n1)CCC2 (stereo partly drawn) [Example 46, 2-(3-(2-((S)-2-methylazetidin-1-yl)-6,7-dihydro-5H-cyclopenta[d]pyrimidin-4-yl)phenyl)cyclopropane-1-carboxylic acid] | – | – | 10 nM | 7.6 nM |
| C[C@H]1CCN1c1nc2c(c(-c3ccc(C#N)s3)n1)CCC2 [Example 49, (S)-5-(2-(2-methylazetidin-1-yl)-6,7-dihydro-5H-cyclopenta[d]pyrimidin-4-yl)thiophene-2-carbonitrile] | – | – | 125 nM | 222 nM |
| C[C@H]1CCN1c1nc2c(c(-c3cccc(C(=O)NCCNC(=O)OC(C)(C)C)c3)n1)CCC2 [Example 51, tert-butyl (S)-(2-(3-(2-(2-methylazetidin-1-yl)-6,7-dihydro-5H-cyclopenta[d]pyrimidin-4-yl)benzamido)ethyl)carbamate] | – | – | 144 nM | 309 nM |
| C[C@H]1CCN1c1nc2c(c(-c3cccc(C(=O)NCCN)c3)n1)CCC2 [Example 52, (S)—N-(2-aminoethyl)-3-(2-(2-methylazetidin-1-yl)-6,7-dihydro-5H-cyclopenta[d]pyrimidin-4-yl)benzamide] | – | – | 22.2 nM | 42.7 nM |
| CNCCNC(=O)c1cccc(-c2nc(N3CC[C@@H]3C)nc3c2CCC3)c1 [Example 53, (S)—N-(2-(methylamino)ethyl)-3-(2-(2-methylazetidin-1-yl)-6,7-dihydro-5H-cyclopenta[d]pyrimidin-4-yl)benzamide] | – | – | 130 nM | 194 nM |
| C[C@H]1CCN1c1nc2c(c(-c3cccc(S(=O)(=O)NCCO)c3)n1)CCC2 [Example 54, (S)—N-(2-hydroxyethyl)-3-(2-(2-methylazetidin-1-yl)-6,7-dihydro-5H-cyclopenta[d]pyrimidin-4-yl)benzenesulfonamide] | – | – | 42 nM | 40.4 nM |
